Here are results for 15 compounds from patent US12286435B2, “Compound having benzo seven-membered ring structure, preparation method therefor, and use thereof” (BIONNA (BEIJING) MEDICAL TECHNOLOGY CO., LTD., priority 2019, dated 2025).

One assay deals with BRD4 BD1 protein (Homo sapiens (Human), UniProt O60885). The experiment in a line: Fluorescence polarization binding affinity (Ki) with BRD4 BD1 protein. To be noted: fluorescence polarization; Ki calculated from IC50.
Assay [1] has as its system multiple myeloma MM.1S cell line. Put plainly: Cell viability (CCK-8), multiple myeloma MM.1S. The class given is cell-based. To be noted: Homo sapiens, MM1.S, 96 h, MM.1S cells, 4 days, CCK-8, 50% inhibition of cell growth. The essentials: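 Cells (about 3000-5000 per well) exposed to 3-fold serial dilutions of compound for 4 days at 37° C, 5% CO2. CCK-8 added 2-4 h, absorbance at 450 nm, viability normalised to untreated cells after medium-only blank subtraction; IC50 is concentration giving 50% growth inhibition.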

The target of a further assay is BRD4 BD2 protein (Homo sapiens (Human), UniProt O60885). The experiment in a line: Fluorescence polarization binding affinity (Ki) with BRD4 BD2 protein. Conditions: fluorescence polarization; Ki calculated from IC50.

Several values for one entry are separate records, joined by “and”; a condition that tells them apart may be missing. Identical values can stand only once. Counter-ions that a name gives are not always drawn.

The term Ki denotes a dissociation constant, usually derived from enzyme kinetics or from competition with a known ligand. By IC50 is commonly meant the point on the concentration scale where inhibition reaches its midpoint. Read a high IC50 as a need for much substance. For `Cc1nnn2c1-c1ccc(C3=CCN(C)CC3)cc1C(Nc1cccc(Cl)c1)CC2` (stereo not drawn) [LD07, N-(3-chlorophenyl)-1-methyl-9-(1-methyl-1,2,3,6-tetrahydropyridin-4-yl)-6,7-dihydro-5H-benzo[c][1,2,3]triazolo[1,5-a]azepin-7-amine 2,2,2-trifluoroacetate], the Ki on BRD4 BD1 protein was 770 nM; on BRD4 BD2 protein it was 33.1 nM. This compound registered an IC50 in assay [1] of 146 nM.

In the case of `CC(=O)N1CC=C(c2ccc3c(c2)C(Nc2ccc(Cl)cc2)CCn2nnc(C)c2-3)CC1` (stereo not drawn) [LD19, 1-(4-(7-((4-chlorophenyl)amino)-1-methyl-6,7-dihydro-5H-benzo[c][1,2,3]triazolo[1,5-a]azepin-9-yl)-3,6-dihydropyridin-1(2H)-yl)ethan-1-one], the Ki is 38.7 nM at BRD4 BD1 protein and 9.67 nM on BRD4 BD2 protein. Also, the IC50 in assay [1] was less than 1 nM.

As for `CC(=O)N1CC=C(c2ccc3c(c2)C(Nc2ccc(F)c(Cl)c2)CCn2nnc(C)c2-3)CC1` (stereo not drawn) [LD77, 1-(4-(7-((3-chloro-4-fluorophenyl)amino)-1-methyl-6,7-dihydro-5H-benzo[c][1,2,3]triazolo[1,5-a]azepin-9-yl)-3,6-dihydropyridin-1(2H)-yl)ethan-1-one], the Ki at BRD4 BD1 protein was 81.7 nM; at BRD4 BD2 protein it was 3.97 nM and 3.16 nM. The same compound showed an IC50 in assay [1] of 1.86 nM.

For the compound `Cc1nnn2c1-c1ccc(-c3ccncc3)cc1C(Nc1ccc(Cl)cc1)CC2` (stereo not drawn) [RA188, N-(4-chlorophenyl)-1-methyl-9-(pyridin-4-yl)-6,7-dihydro-5H-benzo[c][1,2,3]triazolo[1,5-a]azepin-7-amine], the Ki at BRD4 BD1 protein is 73.7 nM; on BRD4 BD2 protein it was 17.1 nM. Further, the midpoint of inhibition in assay [1], the IC50, lay at 8.54 nM.

Consider `Cc1nnn2c1-c1ccc(-c3cccnc3)cc1C(Nc1ccc(Cl)cc1)CC2` (stereo not drawn) [RA193, N-(4-chlorophenyl)-1-methyl-9-(pyridin-3-yl)-6,7-dihydro-5H-benzo[c][1,2,3]triazolo[1,5-a]azepin-7-amine], for which the inhibitory constant (Ki) at BRD4 BD1 protein was 52 nM; on BRD4 BD2 protein, 11.1 nM. The IC50 in assay [1] was determined as 50.5 nM.

Turning to `Cc1nnn2c1-c1ccc(-c3ccc(NC(=O)OC(C)(C)C)cc3)cc1C(Nc1ccc(Cl)cc1)CC2` (stereo not drawn) [RA194, tert-butyl (4-(7-((4-chlorophenyl)amino)-1-methyl-6,7-dihydro-5H-benzo[c][1,2,3]triazolo[1,5-a]azepin-9-yl)phenyl)carbamate], the Ki at BRD4 BD1 protein was 29.1 nM; on BRD4 BD2 protein it was 24.1 nM. Also, the IC50 in assay [1] came out at 329 nM.

Take `Cc1nnn2c1-c1ccc(-c3ccc(N)nc3)cc1C(Nc1ccc(Cl)cc1)CC2` (stereo not drawn) [RB03, 9-(6-aminopyridin-3-yl)-N-(4-chlorophenyl)-1-methyl-6,7-dihydro-5H-benzo[c][1,2,3]triazolo[1,5-a]azepin-7-amine]: the Ki is 36.9 nM at BRD4 BD1 protein and 16.6 nM on BRD4 BD2 protein. For the same compound, the IC50 in assay [1] came out at 16.9 nM.

For `Cc1nnn2c1-c1ccc(-c3cncnc3)cc1C(Nc1ccc(Cl)cc1)CC2` (stereo not drawn) [RB06, N-(4-chlorophenyl)-1-methyl-9-(pyrimidin-5-yl)-6,7-dihydro-5H-benzo[c][1,2,3]triazolo[1,5-a]azepin-7-amine], the Ki was 129 nM at BRD4 BD1 protein and 15.4 nM at BRD4 BD2 protein. The IC50 in assay [1] was 53.2 nM.

As for `Cc1nnn2c1-c1ccc(-c3cn[nH]c3)cc1C(Nc1ccc(Cl)cc1)CC2` (stereo not drawn) [RB07, N-(4-chlorophenyl)-1-methyl-9-(1H-pyrazol-4-yl)-6,7-dihydro-5H-benzo[c][1,2,3]triazolo[1,5-a]azepin-7-amine], the Ki on BRD4 BD1 protein is 51.2 nM; on BRD4 BD2 protein, 19.8 nM. For the same compound, half-maximal inhibition in assay [1] (IC50) required 13.6 nM.

Take `Cc1nnn2c1-c1ccc(-c3ccc4c(c3)OCO4)cc1C(Nc1ccc(Cl)cc1)CC2` (stereo not drawn) [RB11, 9-(benzo[d][1,3]dioxo1-5-yl)-N-(4-chlorophenyl)-1-methyl-6,7-dihydro-5H-benzo[c][1,2,3]triazolo[1,5-a]azepin-7-amine]: the inhibition constant (Ki) is 89.9 nM at BRD4 BD1 protein and 12.9 nM on BRD4 BD2 protein. Further, in assay [1], the IC50 was 323 nM.

With `Cc1nnn2c1-c1ccc(-c3ccnc4[nH]ccc34)cc1C(Nc1ccc(Cl)cc1)CC2` (stereo not drawn) [RB31, N-(4-chlorophenyl)-1-methyl-9-(1H-pyrrolo[2,3-b]pyridin-4-yl)-6,7-dihydro-5H-benzo[c][1,2,3]triazolo[1,5-a]azepin-7-amine], the figures for the Ki at BRD4 BD1 protein and at BRD4 BD2 protein were 33.6 nM and 24.7 nM, respectively. Further, the IC50 in assay [1] amounted to 676 nM.

For `Cc1nnn2c1-c1ccc(-c3cccc4[nH]cnc34)cc1C(Nc1ccc(Cl)cc1)CC2` (stereo not drawn) [RB42, 9-(1H-benzo[d]imidazol-4-yl)-N-(4-chlorophenyl)-1-methyl-6,7-dihydro-5H-benzo[c][1,2,3]triazolo[1,5-a]azepin-7-amine], the Ki at BRD4 BD1 protein was 53 nM; at BRD4 BD2 protein, 25.7 nM. Half-maximal inhibition in assay [1] (IC50) was put at 324 nM.

As to `Cc1nnn2c1-c1ccc(-c3cnn(C)c3)cc1C(N(C)c1ccc(Cl)cc1)CC2` (stereo not drawn) [RB66, N-(4-chlorophenyl)-N,1-dimethyl-9-(1-methyl-1H-pyrazol-4-yl)-6,7-dihydro-5H-benzo[c][1,2,3]triazolo[1,5-a]azepin-7-amine], the Ki was 62.9 nM on BRD4 BD1 protein and 9 nM at BRD4 BD2 protein. For the same compound, the IC50 in assay [1] amounted to 31.3 nM.

Regarding `Cc1nnn2c1-c1ccc(-c3cncc4[nH]ccc34)cc1C(Nc1ccc(Cl)cc1)CC2` (stereo not drawn) [RB90, N-(4-chlorophenyl)-1-methyl-9-(1H-pyrrolo[2,3-c]pyridin-4-yl)-6,7-dihydro-5H-benzo[c][1,2,3]triazolo [1,5-a]azepin-7-amine], the Ki was 104 nM on BRD4 BD1 protein and 35.2 nM on BRD4 BD2 protein. The same compound registered an IC50 in assay [1] of 257 nM.

Consider `Cc1nnn2c1-c1ccc(C3=CCNCC3)cc1C(Nc1ccc(Cl)cc1)CC2` (stereo not drawn) [RB99, N-(4-chlorophenyl)-1-methyl-9-(1,2,3,6-tetrahydropyridin-4-yl)-6,7-dihydro-5H-benzo[c][1,2,3]triazolo[1,5-a]azepin-7-amine hydrochloride], for which the inhibitory constant (Ki) on BRD4 BD1 protein was 422 nM; at BRD4 BD2 protein, 19.4 nM. It took 215 nM to reach half-maximal inhibition in assay [1] (IC50).
